Here are results for 1 compound from publication PMC9611471 (Pharmaceutics, 2022).

“Also recorded” adds a separate entry of the source.

Data set [1] relates to A549 cells. Description: Levels of sphingosine, ceramide and S1P (ELISA). In kind it is cell-based, human. Particulars: 5 and 10 μM. The protocol: After seeding 1 × 10^6 cells/well into a 6-well plate and incubating for 24 h, the synthetic compounds were treated by concentration. Then, cells were collected and freezing and thawing were repeated three to five times, and centrifuged supernatant was used for testing. The levels of sphingosine, ceramide, and S1P were measured according to the proposed manual using each ELISA kit (Mybiosource, Inc., San Diego, CA, USA).
(In general: An ELISA detects its analyte on a solid surface through an enzyme-linked reagent.)

Data set [2] deals with A549 cells. Description: Cytotoxicity after SK1/SK2 siRNA transfection. The following applies: A549 cells transfected with siSK1, siSK2; 24 h. The format is cell-based, human. The protocol:
Control small interfering RNA (siControl) was obtained from Bioneer (Daejeon, Korea), while SK1 (sc-44114) and SK2 (sc-39225) siRNA (siSK1 and siSK2) were purchased from Santa Cruz Biotechnology (Dallas, TX, USA). Cells were transfected using Lipofectamine RNAiMAX Reagent (Invitrogen, Carlsbad, CA, USA) according to the manufacturer’s instructions. Transfection efficiency was monitored by Western blot. After 24 h of infection, cytotoxicity was measured using infected cells.

A short description of data set [3]: In vitro metabolic stability, rat liver microsomes. The format is in vitro ADME. Particulars: pooled liver microsomes, NADPH, 37 °C, 0 and 30 min.
Data set [4] can be described thus: In vitro metabolic stability, mouse liver microsomes. The format is in vitro ADME. Particulars: pooled liver microsomes, NADPH, 37 °C, 0 and 30 min. On the technique in general: Liver microsomes are a subcellular fraction often used to study metabolism.
Data set [5] has as its target T1, SK2 (Homo sapiens, UniProt Q9NRA0).
T1 sequence (Q9NRA0 1-654): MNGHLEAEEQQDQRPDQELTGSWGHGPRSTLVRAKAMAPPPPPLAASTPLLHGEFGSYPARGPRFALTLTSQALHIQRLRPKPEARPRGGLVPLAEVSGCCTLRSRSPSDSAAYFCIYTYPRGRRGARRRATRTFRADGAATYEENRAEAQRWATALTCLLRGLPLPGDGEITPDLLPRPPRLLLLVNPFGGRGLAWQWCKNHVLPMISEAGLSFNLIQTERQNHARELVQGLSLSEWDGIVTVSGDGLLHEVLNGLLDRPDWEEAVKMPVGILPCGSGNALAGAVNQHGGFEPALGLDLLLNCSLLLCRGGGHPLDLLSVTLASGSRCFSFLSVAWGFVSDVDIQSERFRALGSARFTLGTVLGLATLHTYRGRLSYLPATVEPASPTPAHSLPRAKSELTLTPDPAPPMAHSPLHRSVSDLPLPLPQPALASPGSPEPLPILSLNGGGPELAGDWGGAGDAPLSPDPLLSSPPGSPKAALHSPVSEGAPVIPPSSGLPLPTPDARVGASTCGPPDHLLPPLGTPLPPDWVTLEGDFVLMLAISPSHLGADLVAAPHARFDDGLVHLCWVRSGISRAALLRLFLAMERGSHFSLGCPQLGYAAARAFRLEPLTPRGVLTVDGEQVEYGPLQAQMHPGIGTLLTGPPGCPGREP
Nature of the data set: SK2 activity assay (Adapta screening system). Particulars: read-out: SK2 inhibitory efficacy.

The nature of data set [6]: In vitro metabolic stability, human liver microsomes. Particulars: pooled liver microsomes 0.5 mg/mL, NADPH, 37 °C, 0 and 30 min.

As to `Cc1cc(CN(Cc2cc(C)cc(CS(=O)(=O)c3ccccc3)c2)c2ccc(CCN3CCC(CO)CC3)cc2)cc(CS(=O)(=O)c2ccccc2)c1` [Compound 4, (1-(4-(Bis(3-methyl-5-((phenylsulfonyl)methyl)benzyl)amino)phenethyl)piperidin-4-yl)methanol], in data set [1], the S1P levels entry is “reduced; also recorded: inhibited S1P at a level similar to that of PF-543”, the ceramide levels result is on record as “increased” and the sphingosine levels entry is given as “slightly lower sphingosine expression than PF-543”. Moreover, the “dependence of cytotoxic efficacy on SK1/SK2 (siRNA knockdown)” value in data set [2] is “more dependent on SK1, although SK2 is also partially involved”. The “MS RLM” value in data set [3] amounted to 22.9. The “MS MLM” value in data set [4] is 38.5. Further, in data set [5], the inhibition at 10 µM worked out at 49%. In data set [6], the “MS HLM” value is 30.2.
